Results as given in patent US20030013770A1, “Aminobenzophenones as inhibitors of il 1b and tnf” (priority 2001, published 2003).

Columns and labels:
Format in all cases: cell-based
PMN-superoxide = test: Inhibition of PMN (polymorphonuclear) superoxide secretion; conditions: human PMN granulocytes primed with TNF-α, stimulated with fMLP; reduction of ferricytochrome C; read-out: The median inhibition concentration (IC50, nM) of PMN-superoxide
Experimental: The compounds of the present invention also show similar activities in the ability to inhibit PMN (polymorphonuclear) superoxide secretion which is also indicative of potentially useful anti-inflammatory drugs. The compounds were tested using the following procedure:
Human polymorphonuclear (PMN) granulocytes were isolated from human blood by dextran sedimentation, Lymphoprep® fractionation and hypotonic lysis of contaminating erythrocytes. Superoxide anion generation was measured as the superoxide dismutase inhibitable reduction of ferricytochrome C (Madhu, S. B. et al, Inflammation, 16, 241, (1992)). The cells were suspended in Hanks' balanced salt solution, and incubated for 10 minutes at 37° C. with test compounds. The cells were primed by the addition of TNF-α (3 ng/ml final concentration) for 10 minutes, and then ferricytochrome C, (final concentration 750 μg/ml), bovine serum albumin (BSA, final concentration 1 mg/ml) and formyl-methionyl-leucyl-phenylalanine (fMLP, final concentration 10^−7 M) were added for 3 minutes. The cells were chilled on ice, and were spun down. The optical densities in the cell-free supernatant was measured in a spectrophotometer. The median inhibitory concentration (IC50) of the compounds was calculated.

TNF-α = test: Inhibition of TNF-α secretion in LPS stimulated peripheral blood mononuclear cells; conditions: PBMC; LPS stimulated human peripheral blood mononuclear cells; 18 hours; ELISA of medium; read-out: The median inhibition concentration (IC50, nM) of TNF-α
Experimental: (§1) To study the effect of the compound of the present invention in vitro the inhibition of the IL-1β and TNF-α secretion was measured using the following procedure:
(§2) Cytokine production was measured in the media from lipopolysaccharide (LPS) stimulated peripheral blood mononuclear cells. The mononuclear cells were isolated from human peripheral blood by Lymphoprep® (Nycomed, Norway) fractionation and suspended in RPMI 1640 (growth medium) with foetal calf serum (FCS, 2%), at a concentration of 5×10^5 cells/ml. The cells were incubated in 24-well tissue culture plates in 1 ml aliquots. Test compounds were dissolved in dimethylsulfoxide (DMSO, 10 mM) and were diluted with the medium. Compounds were added to the cells for 30 minutes, then LPS ([…] final concentration) was added. The plates were incubated for 18 hours, and the concentration of IL-1β and TNF-α in the medium was determined by enzyme-linked immunosorbent assays. The median inhibitory concentrations (IC50) of the compounds were calculated.

IL-1β = test: Inhibition of IL-1β secretion in LPS stimulated peripheral blood mononuclear cells; conditions: PBMC; LPS stimulated human peripheral blood mononuclear cells; 18 hours; ELISA of medium; read-out: The median inhibition concentration (IC50, nM) of IL-1β
Experimental: as §1, §2

| SMILES | IC50 (PMN-superoxide) | IC50 (TNF-α) | IC50 (IL-1β) |
| --- | --- | --- | --- |
| Cc1ccccc1Nc1ccc(C(=O)c2ccccc2C)c(Cl)c1 [Compound 102, 2-Chloro-2′-methyl-4-(2-methyl-phenylamino)benzophenone] | 6.3 nM | 4 nM | 13 nM |
| Cc1ccccc1C(=O)c1ccc(Nc2ccccc2F)cc1Cl [Compound 105, 2-Chloro-4-(2-fluoro-phenylamino)-2′-methylbenzophenone] | 13 nM | 4 nM | 25 nM |
| Cc1ccccc1C(=O)c1ccc(Nc2cccc(Cl)c2)cc1Cl [Compound 109, 2-Chloro-4-(3-chloro-phenylamino)-2′-methylbenzophenone] | 20 nM | 7.9 nM | 50 nM |
| Cc1cc(F)ccc1Nc1ccc(C(=O)c2ccccc2C)c(Cl)c1 [Compound 116, 2-Chloro-4-(4-fluoro-2-methyl-phenylamino)-2′-methylbenzophenone] | 3.7 nM | 7.9 nM | 32 nM |

Results, then the compound that gave them:

| IC50 (PMN-superoxide) | IC50 (TNF-α) | IC50 (IL-1β) | SMILES |
| --- | --- | --- | --- |
| 5 nM | 16 nM | 40 nM | Cc1ccccc1C(=O)c1ccc(Nc2ccc(Cl)cc2)cc1Cl [Compound 119, 2-Chloro-4-(4-chloro-phenylamino)-2′-methylbenzophenone] |
| 50 nM | 6.3 nM | 40 nM | Cc1ccc(F)cc1Nc1ccc(C(=O)c2ccccc2C)c(Cl)c1 [Compound 130, 2-Chloro-4-(5-fluoro-2-methyl-phenylamino)-2′-methylbenzophenone] |
| 13 nM | 4 nM | 13 nM | Cc1ccccc1C(=O)c1ccc(Nc2cccc(F)c2C)cc1Cl [Compound 131, 2-Chloro-4-(3-fluoro-2-methyl-phenylamino)-2′-methylbenzophenone] |
| 100 nM | 8 nM | 100 nM | Cc1cc(Br)ccc1Nc1ccc(C(=O)c2ccccc2C)c(Cl)c1 [Compound 136, 4-(4-Bromo-2-methyl-phenylamino)-2-chloro-2′-methylbenzophenone] |
| 5 nM | 7.1 nM | 13 nM | Cc1ccccc1C(=O)c1ccc(Nc2ccccc2N)cc1Cl [ref. A), 4-(2-Aminophenylamino)-2-chloro-2′-methylbenzophenone, reference compound] |
